Test results reported in US20240150377A1, “MODULATORS OF CYSTIC FIBROSIS TRANSMEMBRANE CONDUCTANCE REGULATOR” (VERTEX PHARMACEUTICALS INCORPORATED, priority 2020, published 2024).

Biological target: T1, CFTR (Homo sapiens, UniProt P13569, DEL508-508)
T1 construct: endogenous in cells; host or cells: primary human bronchial epithelial cells from CF subjects (F508del/MF-HBE), differentiated at air-liquid interface
Test: HBE2 assay: Ussing chamber assay of CFTR-mediated short-circuit currents
Assay type: cell-based
Conditions: F508del/MF-HBE cells, with 44 nM potentiator, 18-24 hours, 20% human serum; for Emax: read-out: HBE2 Max activity (%)
Procedure, shortened: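 F508del/MF-HBE cultured >14 days at air-liquid interface, mounted in Ussing chambers; transepithelial short-circuit current recorded under voltage clamp (Vhold=0 mV) at 37 °C. CFTR-mediated ISC (μA/cm^2) taken as peak forskolin response relative to steady-state current after inhibition; corrector activity assessed this way.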

T1 sequence (P13569 with tags, fused parts or gaps DEL508-508): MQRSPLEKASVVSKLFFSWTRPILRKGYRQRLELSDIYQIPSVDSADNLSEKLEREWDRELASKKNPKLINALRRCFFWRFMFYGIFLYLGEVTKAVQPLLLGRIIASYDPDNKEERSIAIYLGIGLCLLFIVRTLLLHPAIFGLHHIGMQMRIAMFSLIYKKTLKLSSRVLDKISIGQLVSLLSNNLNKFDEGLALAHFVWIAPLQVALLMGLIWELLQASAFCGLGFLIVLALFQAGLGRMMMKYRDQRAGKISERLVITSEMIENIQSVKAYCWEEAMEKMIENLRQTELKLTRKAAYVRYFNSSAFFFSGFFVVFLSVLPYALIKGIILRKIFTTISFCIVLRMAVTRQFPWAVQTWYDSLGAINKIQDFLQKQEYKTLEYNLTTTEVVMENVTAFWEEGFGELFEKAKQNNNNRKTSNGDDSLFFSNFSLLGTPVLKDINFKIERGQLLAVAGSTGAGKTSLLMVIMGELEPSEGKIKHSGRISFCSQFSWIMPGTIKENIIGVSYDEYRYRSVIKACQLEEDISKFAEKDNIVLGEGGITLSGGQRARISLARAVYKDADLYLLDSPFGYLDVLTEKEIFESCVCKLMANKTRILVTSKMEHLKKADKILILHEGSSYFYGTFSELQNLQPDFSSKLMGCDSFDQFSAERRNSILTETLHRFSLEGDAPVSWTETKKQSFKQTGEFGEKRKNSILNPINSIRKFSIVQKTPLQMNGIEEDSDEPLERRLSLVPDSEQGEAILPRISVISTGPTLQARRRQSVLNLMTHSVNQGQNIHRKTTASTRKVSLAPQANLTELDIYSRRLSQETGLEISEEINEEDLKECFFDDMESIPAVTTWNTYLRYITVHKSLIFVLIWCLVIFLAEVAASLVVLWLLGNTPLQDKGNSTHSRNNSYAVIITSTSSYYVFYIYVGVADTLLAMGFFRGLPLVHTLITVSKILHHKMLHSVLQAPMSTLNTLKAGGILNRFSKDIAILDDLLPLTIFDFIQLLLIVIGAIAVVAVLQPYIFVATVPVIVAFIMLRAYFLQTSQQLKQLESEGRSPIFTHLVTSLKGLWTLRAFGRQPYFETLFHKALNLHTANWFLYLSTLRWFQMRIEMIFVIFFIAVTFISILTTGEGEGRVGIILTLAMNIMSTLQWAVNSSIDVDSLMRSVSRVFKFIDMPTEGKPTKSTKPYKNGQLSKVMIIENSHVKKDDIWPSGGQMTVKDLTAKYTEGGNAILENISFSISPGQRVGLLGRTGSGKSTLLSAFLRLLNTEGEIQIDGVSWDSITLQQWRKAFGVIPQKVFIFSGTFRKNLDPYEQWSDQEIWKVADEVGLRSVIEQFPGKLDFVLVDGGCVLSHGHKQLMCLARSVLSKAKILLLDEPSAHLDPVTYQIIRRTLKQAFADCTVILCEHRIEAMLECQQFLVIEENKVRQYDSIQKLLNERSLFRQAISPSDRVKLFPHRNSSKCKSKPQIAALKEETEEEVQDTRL

HBE2 Activity at 3 μM (%) (3 μM corrector)	HBE2 Activity at 3 μM (%) (3 μM)	SMILES	other results
+++ (+++ is >60+)		CCC(C)(C)C[C@@H]1COc2cc(-c3c(C)cccc3C)nc(n2)NS(=O)(=O)c2cccc(c2)C(=O)N1Cc1cncc(N(C)C2CCC2)n1 (single isomer, unassigned) [Compound 1330, 12-[[6-[cyclobutyl(methyl)amino]pyrazin-2-yl]methyl]-11-(2,2-dimethylbutyl)-6-(2,6-dimethylphenyl)-2,2-dioxo-9-oxa-2λ^6-thia-3,5,12,19-tetrazatricyclo[12.3.1.14,8]nonadeca-1(18),4,6,8(19),14,16-hexaen-13-one]	
	+++ (+++ is >60+)	CC(=O)N1CC2[C@@H](CCN2c2cncc(CN3C(=O)c4cccc(c4)S(=O)(=O)Nc4nc(cc(-c5c(C)cccc5C)n4)OC[C@H]3CC(C)(C)C)n2)C1 (stereo in doubt) [Compound 1663]	
	+++ (+++ is >60+)	COCC1CC2(CCN2c2cncc(CN3C(=O)c4cccc(c4)S(=O)(=O)Nc4nc(cc(-c5c(C)cccc5C)n4)OC[C@H]3CC(C)(C)C)n2)C1 (stereo partly drawn) [Compound 1707]	
+++ (+++ is >60+)		Cc1cccc(C)c1-c1cc2nc(n1)NS(=O)(=O)c1cccc(c1)C(=O)N(Cc1cncc(C3CCCCO3)n1)[C@H](CCC(C)(C)C)CO2 (stereo in doubt) [Compound 1881]	
	+++ (+++ is >60+)	Cc1cccc(C)c1-c1cc2nc(n1)NS(=O)(=O)c1cccc(c1)C(=O)N(Cc1cncc(N(C)C3CCC3)n1)[C@H](CC(C)(C)C)CO2 [Compound 1310, (11R)-12-[[6-[Cyclobutyl(methyl)amino]pyrazin-2-yl]methyl]-6-(2,6-dimethylphenyl)-11-(2,2-dimethylpropyl)-2,2-dioxo-9-oxa-2λ^6-thia-3,5,12,19-tetrazatricyclo[12.3.1.14,8]nonadeca-1(18),4(19),5,7,14,16-hexaen-13-one]	EC50: < 1 µM; Emax: > 60%
+++ (+++ is >60+)		COCCN(C)c1cncc(CN2C(=O)c3cccc(c3)S(=O)(=O)Nc3nc(cc(-c4c(C)cccc4C)n3)OC[C@H]2CCC(C)(C)C)n1 [Compound 1812]	
+++ (+++ is >60+)		Cc1cccc(C)c1-c1cc2nc(n1)NS(=O)(=O)c1cccc(c1)C(=O)N(Cc1cncc(N3CC[C@H]3C)n1)[C@H](COC(C)C)CO2 [Compound 1926]	
+++ (+++ is >60+)		Cc1cccc(C)c1-c1cc2nc(n1)NS(=O)(=O)c1cccc(c1)C(=O)N(Cc1cncc(N3CCC[C@H]3C)n1)[C@H](CC(C)(C)F)CO2 [Compound 1803]	
	+++ (+++ is >60+)	CNC(=O)CC1CCCN1c1cncc(CN2C(=O)c3cccc(c3)S(=O)(=O)Nc3nc(cc(-c4c(C)cccc4C)n3)OC[C@H]2CC(C)(C)C)n1 (stereo partly drawn) [Compound 1657]	
	+++ (+++ is >60+)	Cc1cccc(C)c1-c1cc2nc(n1)NS(=O)(=O)c1cccc(c1)C(=O)N(Cc1cncc(N(C)C3CCC3)n1)[C@H](CC1CCC1)CO2 [Compound 1669]	EC50: < 1 µM; Emax: > 60%
	+++ (+++ is >60+)	Cc1cccc(C)c1-c1cc2nc(n1)NS(=O)(=O)c1cccc(c1)C(=O)N(Cc1ncc(OC(C)C)cn1)[C@H](CC1CCC1)[C@@H](C)O2 [Compound 1567]	
	+++ (+++ is >60+)	Cc1cccc(C)c1-c1cc2nc(n1)NS(=O)(=O)c1cccc(c1)C(=O)N(Cc1ncc(OC(C)C)cn1)[C@H](CCC1CC1)CO2 [Compound 1597]	
+++ (+++ is >60+)		CC[C@@H]1CCCN1c1cncc(CN2C(=O)c3cccc(c3)S(=O)(=O)Nc3nc(cc(-c4c(C)cccc4C)n3)OC[C@H]2CCC(C)(C)C)n1 [Compound 1816]	
+++ (+++ is >60+)		Cc1cccc(C)c1-c1cc2nc(n1)NS(=O)(=O)c1cccc(c1)C(=O)N(Cc1cc(NC(=O)OC(C)(C)C)cc(N(C)C3CCC3)n1)[C@H](CC(C)(C)C)CO2 [Compound 1929]	
	+++ (+++ is >60+)	COC[C@@H]1CCN1c1cccc(CN2C(=O)c3cccc(c3)S(=O)(=O)Nc3nc(cc(-c4c(C)cccc4C)n3)OC[C@H]2CC(C)(C)C)n1 [Compound 1550]	
	+++ (+++ is >60+)	Cc1cccc(C)c1-c1cc2nc(n1)NS(=O)(=O)c1cccc(c1)C(=O)N(Cc1cncc(N3CCC3CNC(=O)OC(C)(C)C)n1)[C@H](CC(C)(C)C)CO2 (stereo partly drawn) [Compound 1699]	
	+++ (+++ is >60+)	Cc1cccc(C)c1-c1cc2nc(n1)NS(=O)(=O)c1cccc(c1)C(=O)N(Cc1nccc(N3CC[C@H]3C)n1)[C@H](CC(C)(C)C)CO2 [Compound 1552]	
	+++ (+++ is >60+)	Cc1cccc(C)c1-c1cc2nc(n1)NS(=O)(=O)c1cccc(c1)C(=O)N(Cc1cncc(N3CC4OCC[C@@H]43)n1)[C@H](CC(C)(C)C)CO2 (stereo in doubt) [Compound 1628]	
+++ (+++ is >60+)		Cc1cccc(C)c1-c1cc2nc(n1)NS(=O)(=O)c1cccc(c1)C(=O)N(Cc1cncc(C3CCOCC3)n1)[C@H](CCC(C)(C)C)CO2 [Compound 1879]	
	++ (++ is 30-60%)	Cc1cccc(C)c1-c1cc2nc(n1)NS(=O)(=O)c1cccc(c1)CN(Cc1ncc(OC(C)C)cn1)[C@H](CC(C)(C)C)CO2 [Compound 1298]	
+++ (+++ is >60+)		Cc1cccc(C)c1-c1cc2nc(n1)NS(=O)(=O)c1cccc(c1)C(=O)N(Cc1cncc(N3CCCC[C@H]3C)n1)[C@H](CC(C)(C)F)CO2 [Compound 1805]	
+++ (+++ is >60+)		Cc1cccc(C)c1-c1cc2nc(n1)NS(=O)(=O)c1cccc(c1)C(=O)N(Cc1cncc(N(C)C3CCC3)n1)[C@H](CC(C)C)CCO2 [Compound 1770]	
+++ (+++ is >60+)		Cc1cccc(C)c1-c1cc2nc(n1)NS(=O)(=O)c1cccc(c1)C(=O)N(Cc1cncc(N3C[C@H]4CCCCC43)n1)[C@H](CC(C)(C)C)CO2 (stereo in doubt) [Compound 1799]	
+++ (+++ is >60+)		Cc1cccc(C)c1-c1cc2nc(n1)NS(=O)(=O)c1cccc(c1)C(=O)N(Cc1cncc(N(C)CC(C)C)n1)[C@H](CC(C)C)CO2 [Compound 1713]	
	+++ (+++ is >60+)	Cc1cccc(C)c1-c1cc2nc(n1)NS(=O)(=O)c1cccc(c1)C(=O)N(Cc1ncc(OC3CCC3)cn1)[C@H](CC1(C)CC1)CO2 [Compound 1576]	
	+++ (+++ is >60+)	Cc1cccc(C)c1-c1cc2nc(n1)NS(=O)(=O)c1cccc(c1)C(=O)N(Cc1ncc(OC(C)C)cn1)[C@H]([C@@H](C)C1CC1)CO2 (stereo in doubt) [Compound 1559]	
+++ (+++ is >60+)		Cc1cc(C)c(-c2cc3nc(n2)NS(=O)(=O)c2cccc(c2)C(=O)N(Cc2cncc(N(C)C4CCC4)n2)[C@H](CC(C)(C)C)CO3)c(C)c1 [Compound 1729]	
	+++ (+++ is >60+)	Cc1cccc(C)c1-c1cc2nc(n1)NS(=O)(=O)c1cccc(c1)C(=O)N(Cc1cccc([C@@H](C)NC(=O)C(C)C)n1)[C@H](CC(C)(C)C)CO2 [Compound 1590]	
	+ (+ is <300))	Cc1cccc(C)c1-c1cc2nc(n1)NS(=O)(=O)c1cccc(c1)C(=O)N(Cc1ncc(OC(C)C)cn1)[C@H]([C@@H](C)C(C)C)CO2 (stereo in doubt) [Compound 1571]	

SMILES	HBE2 Activity at 3 μM (%) (3 μM corrector)	HBE2 Activity at 3 μM (%) (3 μM)	other results
COC[C@@H]1CCN1c1cncc(CN2C(=O)c3cccc(c3)S(=O)(=O)Nc3nc(cc(-c4c(C)cccc4C)n3)OC[C@H]2CC(C)(C)C)n1 [Compound 1549]		+++ (+++ is >60+)	EC50: < 1 µM; Emax: > 60%
